In ChEMBL document CHEMBL5393453, “Compositions and methods of using the same for treatment of neurodegenerative and mitochondrial disease” (2021):

System: HeLa
Assay: Induction of mitophagy in human HeLa Mito-Keima/YFP-Parkin cells treated with FCCP/oligomycin measured by FACS analysis relative to DMSO
Assay type: functional
Conditions: not given

SMILES	fold change (FC)
FC(F)(F)c1cc2c(N[C@@H]3c4ccccc4CC[C@H]3N3CCOCC3)ncnc2[nH]1 (racemic)	9.53
Fc1ccc2c(c1)CC[C@H](N1CCOCC1)[C@H]2Nc1ncnc2[nH]c(C(F)(F)F)cc12 (single isomer, unassigned)	5.11
Fc1ccc2c(c1)CC[C@@H](N1CCOCC1)[C@@H]2Nc1ncnc2[nH]c(C(F)(F)F)cc12 (single isomer, unassigned)	4.67
Fc1ccc2c(c1)CC[C@H](N1CCOCC1)[C@H]2Nc1ncnc2[nH]c(C3CC3)cc12 (single isomer, unassigned)	5.24
FC(F)(F)c1cc2c(N[C@H]3c4ccccc4CC[C@@H]3N3CC4(CCOCC4)C3)ncnc2[nH]1 (single isomer, unassigned)	3.95
FC(F)(F)c1cc2c(N[C@@H]3c4ccccc4CC[C@H]3N3CCOCC3)ncnc2[nH]1 (single isomer, unassigned)	7.78
FC(F)(F)c1cc2c(N[C@H]3c4ccccc4CC[C@@H]3N3C[C@H]4COC[C@H]4C3)ncnc2[nH]1 (single isomer, unassigned)	5.44

System: not listed separately
Assay: Cytotoxicity against human HeLa cells expressing YFP parkin assessed as highest safety dose by DAPI staining analysis
Assay type: toxicity, cell-based
Conditions: read-out: Activity

SMILES	MNTC [µM]
Fc1ccc2c(c1)CC[C@@H](N1C[C@H]3COC[C@H]3C1)[C@@H]2Nc1ncnc2[nH]c(C(F)(F)F)cc12 (single isomer, unassigned)	8.3
COC[C@H]1CCN([C@H]2COc3ccccc3[C@@H]2Nc2ncnc3[nH]c(C(F)(F)F)cc23)C1 (single isomer, unassigned)	25
FC(F)(F)c1cc2c(N[C@@H]3c4ccccc4CC[C@H]3N3CCOCC3)ncnc2[nH]1 (racemic)	13.9
C[C@@H]1CN([C@H]2COc3cc(F)ccc3[C@@H]2Nc2ncnc3[nH]c(C(F)(F)F)cc23)C[C@H](C)O1 (single isomer, unassigned)	25
Fc1ccc2c(c1)CC[C@H](N1C[C@H]3COC[C@H]3C1)[C@H]2Nc1ncnc2[nH]c(C3CC3)cc12	25
C[C@@H]1CN([C@H]2CCc3ccccc3[C@@H]2Nc2ncnc3[nH]c(C4CC4)cc23)CCO1 (single isomer, unassigned)	25
C[C@H]1CN([C@H]2COc3ccccc3[C@@H]2Nc2ncnc3[nH]c(C4CC4)cc23)CCO1	25
FC(F)(F)c1cc2c(NC3c4ccccc4OCC3N3C[C@H]4COC[C@@H]4C3)ncnc2[nH]1 (stereo not given in full)	25
Fc1ccc2c(c1)CC[C@H](N1CCOCC1)[C@H]2Nc1ncnc2[nH]c(C(F)(F)F)cc12 (single isomer, unassigned)	25
C[C@@H]1CN([C@@H]2COc3ccccc3[C@H]2Nc2ncnc3[nH]c(C4CC4)cc23)CCO1	25
C[C@@H]1CN([C@@H]2COc3ccccc3[C@H]2Nc2ncnc3[nH]c(C4CC4)cc23)C[C@H](C)O1	25
Fc1ccc2c(c1)CC[C@H](N1C[C@@H]3COC[C@H]3C1)[C@H]2Nc1ncnc2[nH]c(C3CC3)cc12	25
C[C@@H]1CN([C@H]2COc3cc(F)ccc3[C@@H]2Nc2ncnc3[nH]c(C4CC4)cc23)CCO1	16.7
[2H]C([2H])([2H])OC1CN([C@H]2COc3ccccc3[C@@H]2Nc2ncnc3[nH]c(C(F)(F)F)cc23)C1	25
Fc1ccc2c(c1)CC[C@H](N1C[C@H]3COC[C@@H]3C1)[C@H]2Nc1ncnc2[nH]c(C3CC3)cc12	25
Fc1ccc2c(c1)CC[C@@H](N1CCOCC1)[C@@H]2Nc1ncnc2[nH]c(C(F)(F)F)cc12 (single isomer, unassigned)	25
C[C@H]1CN([C@H]2CCc3ccccc3[C@@H]2Nc2ncnc3[nH]c(C4CC4)cc23)CCO1 (single isomer, unassigned)	25
c1ccc2c(c1)CC[C@H](N1C[C@@H]3COC[C@H]3C1)[C@H]2Nc1ncnc2[nH]c(C3CC3)cc12	25
COC[C@@H]1CCN(C2COc3ccccc3C2Nc2ncnc3[nH]c(C4CC4)cc23)C1 (single isomer, unassigned)	25
COC[C@@H]1CCN([C@H]2COc3ccccc3[C@@H]2Nc2ncnc3[nH]c(C(F)(F)F)cc23)C1 (single isomer, unassigned)	25
c1ccc2c(c1)CC[C@H](N1CCOCC1)[C@H]2Nc1ncnc2[nH]c(C3CC3)cc12	25
C[C@@H]1CN([C@@H]2COc3ccccc3[C@H]2Nc2ncnc3[nH]c(C(F)(F)F)cc23)C[C@H](C)O1	25
Fc1ccc2c(c1)CC[C@H](N1CCOCC1)[C@H]2Nc1ncnc2[nH]c(C3CC3)cc12 (single isomer, unassigned)	25
FC(F)(F)c1cc2c(N[C@H]3c4ccccc4OC[C@@H]3C3CCOCC3)ncnc2[nH]1 (single isomer, unassigned)	25
c1ccc2c(c1)CC[C@H](C1CCOCC1)[C@H]2Nc1ncnc2[nH]c(C3CC3)cc12 (single isomer, unassigned)	25
C[C@@H]1CN([C@@H]2COc3ccccc3[C@H]2Nc2ncnc3[nH]c(C(F)(F)F)cc23)CCO1	25
FC(F)(F)c1cc2c(N[C@H]3c4ccccc4CC[C@@H]3N3C[C@H]4COC[C@H]4C3)ncnc2[nH]1 (single isomer, unassigned)	25

System: not listed separately
Assay: Cytotoxicity against human HeLa cells expressing YFP parkin treated with FCCP/ oligomycin assessed as highest safety dose by DAPI staining analysis
Assay type: toxicity, cell-based
Conditions: read-out: Activity

SMILES	MNTC [µM]
Fc1ccc2c(c1)CC[C@@H](N1C[C@H]3COC[C@H]3C1)[C@@H]2Nc1ncnc2[nH]c(C(F)(F)F)cc12 (single isomer, unassigned)	8.3
COC[C@H]1CCN([C@H]2COc3ccccc3[C@@H]2Nc2ncnc3[nH]c(C(F)(F)F)cc23)C1 (single isomer, unassigned)	4.5
C[C@@H]1CN([C@H]2COc3cc(F)ccc3[C@@H]2Nc2ncnc3[nH]c(C(F)(F)F)cc23)C[C@H](C)O1 (single isomer, unassigned)	9.9
Fc1ccc2c(c1)CC[C@H](N1C[C@H]3COC[C@H]3C1)[C@H]2Nc1ncnc2[nH]c(C3CC3)cc12	10.3
C[C@@H]1CN([C@H]2CCc3ccccc3[C@@H]2Nc2ncnc3[nH]c(C4CC4)cc23)CCO1 (single isomer, unassigned)	1.3
C[C@H]1CN([C@H]2COc3ccccc3[C@@H]2Nc2ncnc3[nH]c(C4CC4)cc23)CCO1	15.1
FC(F)(F)c1cc2c(NC3c4ccccc4OCC3N3C[C@H]4COC[C@@H]4C3)ncnc2[nH]1 (stereo not given in full)	25
Fc1ccc2c(c1)CC[C@H](N1CCOCC1)[C@H]2Nc1ncnc2[nH]c(C(F)(F)F)cc12 (single isomer, unassigned)	8.3
C[C@@H]1CN([C@@H]2COc3ccccc3[C@H]2Nc2ncnc3[nH]c(C4CC4)cc23)CCO1	1.7
C[C@@H]1CN([C@@H]2COc3ccccc3[C@H]2Nc2ncnc3[nH]c(C4CC4)cc23)C[C@H](C)O1	1.2
Fc1ccc2c(c1)CC[C@H](N1C[C@@H]3COC[C@H]3C1)[C@H]2Nc1ncnc2[nH]c(C3CC3)cc12	25
C[C@@H]1CN([C@H]2COc3cc(F)ccc3[C@@H]2Nc2ncnc3[nH]c(C4CC4)cc23)CCO1	2
[2H]C([2H])([2H])OC1CN([C@H]2COc3ccccc3[C@@H]2Nc2ncnc3[nH]c(C(F)(F)F)cc23)C1	19.8
Fc1ccc2c(c1)CC[C@H](N1C[C@H]3COC[C@@H]3C1)[C@H]2Nc1ncnc2[nH]c(C3CC3)cc12	11.7
Fc1ccc2c(c1)CC[C@@H](N1CCOCC1)[C@@H]2Nc1ncnc2[nH]c(C(F)(F)F)cc12 (single isomer, unassigned)	25
C[C@H]1CN([C@H]2CCc3ccccc3[C@@H]2Nc2ncnc3[nH]c(C4CC4)cc23)CCO1 (single isomer, unassigned)	3.5
c1ccc2c(c1)CC[C@H](N1C[C@@H]3COC[C@H]3C1)[C@H]2Nc1ncnc2[nH]c(C3CC3)cc12	3
COC[C@@H]1CCN(C2COc3ccccc3C2Nc2ncnc3[nH]c(C4CC4)cc23)C1 (single isomer, unassigned)	1.4
COC[C@@H]1CCN([C@H]2COc3ccccc3[C@@H]2Nc2ncnc3[nH]c(C(F)(F)F)cc23)C1 (single isomer, unassigned)	3.3
c1ccc2c(c1)CC[C@H](N1CCOCC1)[C@H]2Nc1ncnc2[nH]c(C3CC3)cc12	2.8
C[C@@H]1CN([C@@H]2COc3ccccc3[C@H]2Nc2ncnc3[nH]c(C(F)(F)F)cc23)C[C@H](C)O1	2.3
Fc1ccc2c(c1)CC[C@H](N1CCOCC1)[C@H]2Nc1ncnc2[nH]c(C3CC3)cc12 (single isomer, unassigned)	2.8
FC(F)(F)c1cc2c(N[C@H]3c4ccccc4OC[C@@H]3C3CCOCC3)ncnc2[nH]1 (single isomer, unassigned)	25
c1ccc2c(c1)CC[C@H](C1CCOCC1)[C@H]2Nc1ncnc2[nH]c(C3CC3)cc12 (single isomer, unassigned)	2.1
C[C@@H]1CN([C@@H]2COc3ccccc3[C@H]2Nc2ncnc3[nH]c(C(F)(F)F)cc23)CCO1	9.7
FC(F)(F)c1cc2c(N[C@H]3c4ccccc4CC[C@@H]3N3C[C@H]4COC[C@H]4C3)ncnc2[nH]1 (single isomer, unassigned)	2.8
